Among the data in patent EP2578588A1 (World-Trade Import-Export Wtie, AG, priority 2010, dated 2011) are IC50 values, retold here.

The structures appear in SMILES notation.

The target in this experiment is enzyme PDE-5 (Homo sapiens, UniProt O76074). Nature of the experiment: Phosphodiesterase 5 (PDE-5) inhibition activity in in vitro tests. Conditions: read-out: CI5C. The format is biochemical. The source says: The following data illustrate the inhibiting activity of the compounds of the present invention on the enzyme PDE-5.
Regarding `CCCc1nn(C)c2c(=O)[nH]c(-c3cc(S(=O)(=O)N4CCCN(CCCO)CC4)ccc3OCC)nc12` [Compound 4], the IC50 amounted to 1.8 nM. In the case of `CCCc1nn(C)c2c(=O)[nH]c(-c3cc(S(=O)(=O)N4CCCN(C)CC4)ccc3OCC)nc12` [Compound 3, 5-(2-ethoxy-5-(4-methyl-1,4-diazepan-1-ylsulfonyl)phenyl)-1-methyl-3-propyl-1H-pyrazolo[4,3-d]pyrimidin-7(6H)-one], the IC50 came out at 2.8 nM. Take `CCCc1nn(C)c2c(=O)[nH]c(-c3cc(S(=O)(=O)N4CCCN(C(C)=O)CC4)ccc3OCC)nc12` [Compound 2, 5-(5-(4-acetyl-1,4-diazepan-1-ylsulfonyl)-2-ethoxyphenyl)-1-methyl-3-propyl-1H-pyrazolo[4,3-d]pyrimidin-7(6H)-one]: the IC50 is 6.4 nM. With `CCCc1nn(C)c2c(=O)[nH]c(-c3cc(S(=O)(=O)N4CCCNCC4)ccc3OCC)nc12` [Compound 1, 5-(5-(1,4-diazepan-1-ylsulfonyl)-2-ethoxiphenyl)-1-methyl-3-propyl-1H-pyrazolo[4,3-d]pyrimidin-7(6H)-one] the figure was 4.2 nM; with `CCCc1nn(C)c2c(=O)[nH]c(-c3cc(S(=O)(=O)N4CCCN(C)CC4)cnc3OCC)nc12` [Compound 6, 5-(2-ethoxy-5-(4-methyl-1,4-diazepan-1-ylsulfonyl)pyridin-3-yl)-1-methyl-3-propyl-1H-pyrazolo[4,3-d] pyrimidin-7(6H)-one], 2.2 nM; with `CCCc1nn(C)c2c(=O)[nH]c(-c3cc(S(=O)(=O)N4CCCN(C(=O)OC(C)(C)C)CC4)ccc3OCC)nc12` [Compound 5, tert-butyl 4-(4-ethoxy-3-(1-methyl-7-oxo-3-propyl-6,7-dihydro-1H-pyrazolo[4,3-d]pyrimidin-5-yl)phenylsulfonyl)-1,4-diazepane-1-carboxylate], 3.5 nM. With `CCCc1nn(C)c2c(=O)[nH]c(-c3cc(S(=O)(=O)N4CCCN(CCC(=O)O)CC4)ccc3OCC)nc12` [Compound 7] the figure was 1.2 nM.
